From PMC7021728, “Structure of the agonist 12–HHT in its BLT2 receptor-bound state” (Scientific Reports, 2020)
Residue numbers refer to the chain shown, from its start. pEC50, pKd: −log10 of the molar value. Like-named read-outs stand apart in the source and are kept apart here.

Assays:
BLT2 R166^ECL2A = biological target: T1, BLT2 R166^ECL2A (Homo sapiens, UniProt Q9NPC1, R166A); assay: Gi protein activation catalyzed by BLT2 mutant; format: biochemical
T1 construct: made in house
T1 sequence (Q9NPC1 1-358 R166A): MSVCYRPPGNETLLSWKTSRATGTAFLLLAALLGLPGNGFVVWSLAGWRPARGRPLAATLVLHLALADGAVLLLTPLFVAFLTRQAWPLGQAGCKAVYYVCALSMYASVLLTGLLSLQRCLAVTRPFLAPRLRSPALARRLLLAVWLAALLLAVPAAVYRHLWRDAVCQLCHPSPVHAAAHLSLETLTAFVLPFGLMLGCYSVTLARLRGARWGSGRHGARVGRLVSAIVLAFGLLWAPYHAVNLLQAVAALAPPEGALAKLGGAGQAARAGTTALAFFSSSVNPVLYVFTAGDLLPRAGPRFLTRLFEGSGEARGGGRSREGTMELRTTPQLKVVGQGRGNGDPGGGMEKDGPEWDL
Description: All mutations were introduced in the wild-type BLT2 receptor by PCR-mediated mutagenesis using the QuickChange multisite-directed mutagenesis kit (Stratagene) and the wild-type BLT2 construct as a template. Mutations were confirmed by nucleotide sequencing. […] Gαi2 and Gβ1γ2 were prepared as previously described. […] The data were normalized to the fluorescence maximum obtained in the presence of saturating concentrations in 12–HHT (10 μM).

BLT2 [1] = test system: BLT2; parameters: method as in PMID 18378794; settings: membrane fractions of CHO transfected by BLT2; cited from earlier work
BLT1 = test system: BLT1; parameters: method as in PMID 18378794; settings: in words; cited from earlier work
BLT2 S174^ECL2A = biological target: T2, BLT2 S174^ECL2A (Homo sapiens, UniProt Q9NPC1, S174A); assay: Gi protein activation catalyzed by BLT2 mutant; format: biochemical; settings: for pEC50: read-out: EC50
T2 construct: made in house
T2 sequence (Q9NPC1 1-358 S174A): T1 sequence (Q9NPC1 1-358 R166A) with A166R, S174A
Description: (§1) All mutations were introduced in the wild-type BLT2 receptor by PCR-mediated mutagenesis using the QuickChange multisite-directed mutagenesis kit (Stratagene) and the wild-type BLT2 construct as a template. Mutations were confirmed by nucleotide sequencing.
(§2) Gαi2 and Gβ1γ2 were prepared as previously described. Briefly, agonist-dependent functional coupling of the purified receptor to Gαi2β1γ2 was assessed through the rate of GTPγS binding at increasing agonist concentrations determined by monitoring the relative increase in the intrinsic fluorescence ( λexcitation=300nm , λemission=345nm ) of Gαi2 (200 nM of purified G protein) in the presence of BLT2 (20 nM) in buffer containing 10 mM MOPS, pH 7.2, 130 mM NaCl, and 2 mM MgCl2 at 15 °C after the addition of 10 μM GTPγS. The data were normalized to the fluorescence maximum obtained in the presence of saturating concentrations in 12–HHT (10 μM).

BLT2 R270^7.35A = biological target: T3, BLT2 R270^7.35A (Homo sapiens, UniProt Q9NPC1, R270A); assay: Gi protein activation catalyzed by BLT2 mutant; format: biochemical; settings: construct R270^7.35A
T3 construct: made in house
T3 sequence (Q9NPC1 1-358 R270A): T1 sequence (Q9NPC1 1-358 R166A) with A166R, R270A
Description: as §1, §2

wild-type BLT2 receptor = biological target: T4, wild-type BLT2 receptor (Homo sapiens, UniProt Q9NPC1); assay: Gi protein activation catalyzed by purified BLT2 (rate of GTPγS binding, Gαi2 intrinsic fluorescence); format: biochemical
T4 construct: made in house
T4 sequence (Q9NPC1 1-358): T1 sequence (Q9NPC1 1-358 R166A) with A166R
Description: as §2

purified BLT2 receptor = biological target: purified BLT2 receptor; parameters: method as in PMID 21688157; settings: cited from earlier work
BLT2 [2] = test system: BLT2; parameters: method as in PMID 18378794; settings: cited from earlier work

CCCCC[C@H](O)/C=C/C=C/C/C=C\CCCC(=O)O [12–HHT, 12S–hydroxyheptadeca-5Z,8E,10E-trienoic acid]
effect of the mutation on ligand binding (BLT2 R166^ECL2A; R166^ECL2 mutation compared to wild-type, in words): do not impact receptor ligand properties
pEC50 (BLT2 R166^ECL2A; construct R166^ECL2A): 7.68
half maximal effective concentration (EC50) compared to LTB4 (BLT2 [1]): about one order of magnitude lower than LTB4
binding to BLT1 (BLT1): does not bind
pEC50 (BLT2 S174^ECL2A; S174^ECL2A): 6.53
EC50 (BLT2 S174^ECL2A; construct S174^ECL2A, given as LogEC50 (negative sign), read-out: LogEC50 (converted)): 0.289 µM
pEC50 (BLT2 S174^ECL2A; construct S174^ECL2A): 6.53
pEC50 (BLT2 R270^7.35A): 6.63
pEC50 (wild-type BLT2 receptor; construct wt, Gi protein activation): 7.68
pEC50 (wild-type BLT2 receptor; wild-type): 7.68
pKd (purified BLT2 receptor; purified BLT2 associated with amphipols in solution, in vitro): ~7.22
bound time compared with LTB4 (in vitro off-rate constant measurements) (purified BLT2 receptor; ratio 12–HHT / LTB4): 3.6 times
affinity for BLT2 compared to LTB4 (BLT2 [2]; in cellulo measurements): about one order of magnitude
half maximal inhibitory concentration (IC50) compared to LTB4 (BLT2 [2]; membrane fractions of CHO transfected by BLT2): about one order of magnitude lower than LTB4
